{"source": "patent US8802439B2", "about": "“Methods for enhancing infectivity of retroviruses” (priority 2009, dated 2014)", "key": {"[1]": {"system": "HCV", "assay": "HCV infectivity titer of supernatants from persistently infected HUH-7 cells", "format": "cell-based", "settings": "PiB 16 μM and 8 μM, 1 hour pre-treatment plus 9 hours at 37° C.", "experimental": "(§1) Cells persistently infected with HCV were treated with vehicle (DMSO), an MTP inhibitor (BMS-200150) capable of inhibiting HCV secretion, or with two doses of PiB (16 μM and 8 μM). After 1 hour of pre-treatment at 37° C., cells were washed with warm PBS and further incubated in normal medium containing the same drugs for an additional 9 hours at 37° C. Cell supernatants containing infectious HCV were collected for infectivity titer determination.\nas §1, with “Infection assays for HCV: Persistently” for “Cells persistently”, “cells” for “with HCV”, “inhibitors” for “drugs”, “determination. […] Note that Pin1 is able to block HIV-1 in the HUH-7 cell line used to propagate HCV.” for “determination.”\nPersistently infected HUH-7 cells were treated with solvent DMSO (circles), or increasing concentrations of PiB (squares). After 1 hour of pre-treatment cells were washed and further incubated in normal medium containing the same inhibitors for an additional 9 hours at 37° C. Cell supernatants containing infectious HCV were collected for infectivity titer determination."}, "[2]": {"biological_target": "Pin1 PPIase (Homo sapiens, UniProt Q13526)", "sequence (Q13526 whole entry)": "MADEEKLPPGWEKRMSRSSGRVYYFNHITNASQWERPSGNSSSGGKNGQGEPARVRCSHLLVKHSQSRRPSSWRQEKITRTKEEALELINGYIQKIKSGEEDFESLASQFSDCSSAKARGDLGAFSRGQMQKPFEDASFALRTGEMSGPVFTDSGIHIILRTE", "settings": "Uchida et al. 2003; cited from earlier work"}, "[3]": {"system": "HIV-1", "assay": "Single-round infectivity on TZM-bl cells of HIV-1 produced in Pin1-inhibited 293T cells (Galacton-Star galactosidase assay)", "format": "cell-based", "excerpt": "Viral inocula from transfections above were normalized to equal virion particle number via p24 ELISA and used to infect target CD4^+ HeLa cells (1×10^5 TZM-bl). Infectivity was scored using the Galacton-Star enzymatic galactosidase activity assay, and infectivity quantified by relative […] units (R.F.U).\n(§2) Plasmids: Laboratory-adapted provirus NL4.3, and the CypA-independent NL4.3 CAi2 were kindly provided by Akio Adachi (Department of Virology, Institute of Health Biosciences, The University of Tokushima Graduate School, JAPAN). Mutant R9G89V was a gift from P. Gallay (TSR1) as were NL4.3-GFP and SIV-GFP (originally Dana Gabuzda, Dana Farber Cancer Institute). NL4.3 A92E was kindly provided by W. Phares (Genetics Unit, Novartis Forschungsinstitut, Vienna, Austria). R9Δgp160 plasmid clone was kindly provided by C. Aiken (Vanderbilt Medical Center). VSV-G (CMV-VSV-G) was kindly provided by D. Trono (École Polytechnique Fédérale de Lausanne). Both bMLV-GFP and nMLV-GFP in the form of pCIG3-N, pCIG3-B as well as pCNCG were kindly provided by J. Stoye (National Institute for Medical Research, UK). Isomerase mutant Pin1 (pFLAG-Pin1R68,69A) and WW-domain mutant Pin1 (pFLAG-Pin1 W34A) were constructed by site-directed mutagenesis. Pseudotyping experiments were performed using DNA constructs encoding the VSV-G generously provided by D. Trono. Human Pin1 was cloned into pFLAG (Sigma-Aldrich) making pFLAG-Pin1. Viruses were produced by transfection of 293T cells using either GeneJuice (Novagen) or calcium phosphate. […] All viruses were harvested 24-48 hours post-transfection and filtered (0.2-μM filter, Steriflip Millipore). HIV-1 viruses were normalized by p24 ELISA (Alliance HIV-1 p24 Antigen ELISA Kit, Perkin Elmer), and/or were normalized via the EnzChek® Reverse Transcriptase Assay Kit (E-22064) (Molecular Probes).\nInfection assays for retrovirus: Single-round infections: CD4^+ TZM-bl 100,000 cells/well/mL were seeded onto 24-well plates 24 hours prior to infection. These cells were infected in quadruplicate to 24-well plates. Infectivity was scored using an enzymatic galactosidase activity assay. Specifically, infected TZM-bl cells were washed and lysed, and 20 μl of lysate was transferred to a 96-well plate for detecting β-galactosidase activity. 100 μl of reaction buffer Galacton-Star substrate (Applied Biosystems, Bedford, Mass.), diluted 1:50, was added to 20 μl of lysate, and the light emission was measured over 1 second in a microplate luminometer after 30 minutes incubation. For human PBMC infections, cells were exposed to 10 ng of wild-type virus for 6 hours, washed, and split into two flasks: one with 10 μM PiB added on day 0 and 3, and one without PiB. Replication was monitored by p24 ELISA. For measuring infectivity of GFP-virus, 50,000 TZMb1, sMAGI, OMK, Vero, BSC-1 and CV-1 cells/well/mL were seeded onto 6-well plates respectively 24 hours prior to infection. Viruses were used to infect in duplicate wells, incubated for 48 hours, washed with PBS, trypsinized, fixed in 1% formaldehyde and subsequently analyzed by fluorescence-activated cell sorting (FACS) for percentage cells infected.\nTo examine a potential role for Pin1 in HIV-1 replication we used two inhibitors of Pin1: juglone and PiB. […] 293T cells were transfected with a proviral construct encoding wild-type HIV-1 in the presence or absence of PiB or juglone."}, "[4]": {"system": "other prolyl isomerases such as CypA or FKBP", "settings": "cited from earlier work"}, "[5]": {"system": "HIV-1", "assay": "HIV-1 viral production in 293T producer cells, p24 ELISA of supernatants", "format": "cell-based", "settings": "293T cells transfected with NL4.3; 2.0 μM juglone, 2.0 μM or 10.0 μM PiB", "excerpt": "as §2, with “HIV-1 viruses were normalized by p24 ELISA (Alliance HIV-1 p24 Antigen ELISA Kit, Perkin Elmer), and/or were normalized via the EnzChek® Reverse Transcriptase Assay Kit (E-22064) (Molecular Probes).” left out"}, "[6]": {"biological_target": "E. coli PPIase, parvulin (Escherichia coli, UniProt P0A9L5)", "sequence (P0A9L5 whole entry)": "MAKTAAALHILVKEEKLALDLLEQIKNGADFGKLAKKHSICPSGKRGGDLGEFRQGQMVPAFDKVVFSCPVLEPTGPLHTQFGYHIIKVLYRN", "settings": "covalent modification of two cysteine residues, slow process; cited from earlier work"}}, "note": "Entries after “also recorded” stand apart in the source; their conditions may differ.", "data": [{"smiles": "O=C1c2ccccc2CN1C1CCN(CCC(c2ccccc2)c2ccccc2)CC1", "note": "[BMS-200150]", "values": [{"measurement": "infectious HCV in cell supernatants (infectivity titer)", "setting": "[1]", "result": "virtual absence of particles"}]}, {"smiles": "CN1C(=O)c2ccc3c4c(ccc(c24)C1=O)C(=O)N(C)C3=O", "note": "[PiA, 2,7-dimethylbenzo[lmn][3,8]phenanthroline-1,3,6,8 (2H,7H)-tetrone]", "values": [{"measurement": "inhibition of the PPIase activity of Pin1", "setting": "[2]", "result": "potently inhibit"}]}, {"smiles": "CCOC(=O)CN1C(=O)c2ccc3c4ccc5c6c(ccc(c7ccc(c2c37)C1=O)c64)C(=O)N(CC(=O)OCC)C5=O", "note": "[PiJ, diethyl-1,3,8,10-tetrahydro-1,3,8,10-tetraoxoanthra[2,1,9-def:6,5,10-d′e′f′]diisoquinoline-2,9-diacetate]", "values": [{"measurement": "inhibition of the PPIase activity of Pin1", "setting": "[2]", "result": "potently inhibit"}]}, {"smiles": "O=C1C=CC(=O)c2c(O)cccc21", "note": "[juglone, 5-hydroxy-1,4-naphthoquinone]", "values": [{"measurement": "boost of infectivity", "setting": "[3]", "result": 2, "unit": "fold"}, {"measurement": "inhibition of other PPIase families (CypA, FKBP)", "setting": "[4]", "result": "do not inhibit; also recorded: not affected"}, {"measurement": "viral production (HIV-1 capsid in viral supernatants by p24 ELISA)", "setting": "[5]", "result": "Neither inhibitor influences viral production; also recorded: do not alter viral production"}, {"measurement": "inactivation of E. coli parvulin", "setting": "[6]", "result": "inactivates"}]}]}
